The results in this text go back to patent US10072001B2, “Tank-binding kinase inhibitor compounds” (Gilead Sciences, Inc., priority 2014, dated 2018).

One assay concerns the target IKKε (Homo sapiens (Human), UniProt Q14164). The assay is described as follows: TR-FRET kinase assay, IKKε. In kind it is biochemical. To be noted: full length recombinant IKKε 0.3 nM, 2x Km ATP, 1 μM peptide, 240 min at 25° C.; geometric mean of minimum four determinations. The text has this: Biological Assay for TBK1 and IKKs:
(In general: TR-FRET usually uses a lanthanide donor and a delayed reading to cut background.)

Another assay addresses TBK1 (Homo sapiens (Human), UniProt Q9UHD2). The experiment in a line: TR-FRET kinase assay, TBK1. To be noted: read-out: TBK1-IC50; full length recombinant TBK1 2.5 nM, 2x Km ATP, 1 μM peptide, 240 min at 25° C.; geometric mean of minimum four determinations.

pIC50: −log10 of the molar value.

Sequence of IKKε (Q14164 whole entry): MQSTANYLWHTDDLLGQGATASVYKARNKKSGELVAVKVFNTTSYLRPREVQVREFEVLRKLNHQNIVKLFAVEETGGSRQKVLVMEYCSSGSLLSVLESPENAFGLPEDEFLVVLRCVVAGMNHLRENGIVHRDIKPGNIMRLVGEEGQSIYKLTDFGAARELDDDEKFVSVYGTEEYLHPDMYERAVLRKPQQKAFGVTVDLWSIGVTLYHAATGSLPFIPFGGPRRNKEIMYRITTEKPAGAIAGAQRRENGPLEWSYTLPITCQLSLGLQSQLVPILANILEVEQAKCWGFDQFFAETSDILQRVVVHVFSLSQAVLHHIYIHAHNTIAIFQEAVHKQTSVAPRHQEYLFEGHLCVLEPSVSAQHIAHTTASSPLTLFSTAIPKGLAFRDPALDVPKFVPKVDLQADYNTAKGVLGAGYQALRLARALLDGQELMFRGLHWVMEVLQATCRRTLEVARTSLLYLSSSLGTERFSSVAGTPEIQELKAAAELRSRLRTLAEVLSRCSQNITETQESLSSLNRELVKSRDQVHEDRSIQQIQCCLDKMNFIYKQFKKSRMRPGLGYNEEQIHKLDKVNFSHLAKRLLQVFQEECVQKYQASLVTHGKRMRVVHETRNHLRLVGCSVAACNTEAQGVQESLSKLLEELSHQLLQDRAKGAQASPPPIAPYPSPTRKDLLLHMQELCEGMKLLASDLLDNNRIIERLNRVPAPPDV
Sequence of TBK1 (Q9UHD2 whole entry): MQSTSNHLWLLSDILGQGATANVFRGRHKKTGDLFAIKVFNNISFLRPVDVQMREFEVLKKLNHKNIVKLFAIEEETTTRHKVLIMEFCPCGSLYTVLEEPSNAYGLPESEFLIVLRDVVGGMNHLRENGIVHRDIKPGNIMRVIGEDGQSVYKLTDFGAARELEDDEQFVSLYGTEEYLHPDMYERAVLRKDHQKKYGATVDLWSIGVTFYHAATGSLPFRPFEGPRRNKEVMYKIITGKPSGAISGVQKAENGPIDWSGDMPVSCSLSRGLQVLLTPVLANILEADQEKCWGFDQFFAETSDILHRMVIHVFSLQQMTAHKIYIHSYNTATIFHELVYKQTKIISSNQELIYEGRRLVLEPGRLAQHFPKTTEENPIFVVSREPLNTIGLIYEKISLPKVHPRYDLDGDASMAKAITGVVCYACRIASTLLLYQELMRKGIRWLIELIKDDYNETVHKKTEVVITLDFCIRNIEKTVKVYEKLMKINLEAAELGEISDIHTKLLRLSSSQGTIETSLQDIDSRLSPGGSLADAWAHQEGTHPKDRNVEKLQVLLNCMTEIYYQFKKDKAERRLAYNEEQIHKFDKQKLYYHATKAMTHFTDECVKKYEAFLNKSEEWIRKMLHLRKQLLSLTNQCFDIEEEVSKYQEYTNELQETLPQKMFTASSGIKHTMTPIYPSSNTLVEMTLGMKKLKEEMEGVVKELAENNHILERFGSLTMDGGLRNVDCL
Experimental for TBK1: Enzymatic activity of IKKε and TBK1 was measured using a homogeneous time resolved fluorescence resonance energy transfer (TR-FRET) assay that monitors enzyme dependent phosphorylation of a biotinylated serine/threonine peptide substrate. […] TBK1 and IKKs were expressed and purified as full length recombinant proteins. Detection reagents for the assay were purchased from Cisbio. […] After an assay reaction time of 240 minutes at 25° C., reactions were terminated with EDTA.
Amount of phosphorylated peptide was determined by the addition of 125 nM streptavidin XL665 and europium cryptate labeled anti-phospho monoclonal antibody and the resulting TR-FRET signal was recorded on an Envision plate reader (Ex: 340 nm; Em: 615/665 nm; 100 μs delay and 200 μs read window). […] All IC50 values represent geometric mean values of a minimum of four determinations.

What is called pIC50 is the negative decadic logarithm of the IC50, by convention in mol/L. In the case of `N#Cc1cc(-c2ccnc3[nH]c(-c4ccc(N5CCOCC5)nc4)cc23)ccc1OC1CCOCC1` [Example 81, 5-(2-(6-morpholinopyridin-3-yl)-1H-pyrrolo[2,3-b]pyridin-4-yl)-2-((tetrahydro-2H-pyran-4-yl)oxy)benzonitrile], the negative-log IC50 (pIC50) was 8.00 on IKKε and 8.39 at TBK1.

For `N#Cc1cc(-c2ncnc3[nH]c(-c4ccc(Cl)cc4)cc23)ccc1OC1CCN(C(=O)CO)CC1` [Example 127, 5-(6-(4-chlorophenyl)-7H-pyrrolo[2,3-d]pyrimidin-4-yl)-2-((1-(2-hydroxyacetyl)piperidin-4-yl)oxy)benzonitrile], the values for the pIC50 at IKKε and at TBK1 were 8.02 and 8.33, respectively.

`N#Cc1cc(-c2ccnc3[nH]c(C4=CC5CCC4C5)cc23)ccc1OC1CCOCC1` (stereo not drawn) [Example 43, 5-(2-(bicyclo[2.2.1]hept-2-en-2-yl)-1H-pyrrolo[2,3-b]pyridin-4-yl)-2-((tetrahydro-2H-pyran-4-yl)oxy)benzonitrile]: the pIC50 was less than 6.00 on IKKε and 6.36 at TBK1.

In the case of `N#Cc1cc(-c2ccnc3[nH]c(-c4ccc(N5CCOCC5)cc4)cc23)ccc1F` [Example 58, 2-fluoro-5-(2-(4-morpholinophenyl)-1H-pyrrolo[2,3-b]pyridin-4-yl)benzonitrile], the pIC50 was less than 6.00 at IKKε and 8.22 on TBK1.

On to `N#Cc1cc(-c2ncnc3[nH]c(-c4ccc(N5CCN(C6COC6)CC5)cc4)cc23)ccc1OC1CCOCC1` [Example 105, 5-(6-(4-(4-(oxetan-3-yl)piperazin-1-yl)phenyl)-7H-pyrrolo[2,3-d]pyrimidin-4-yl)-2-((tetrahydro-2H-pyran-4-yl)oxy)benzonitrile], for which the pIC50 at IKKε was 8.26; at TBK1 it was 9.06.

Regarding “4-(2-cyano-4-(2-(4-(4-(2,2-difluoroethyl)piperazin-1-yl)phenyl)-3H-imidazo[4,5-b]pyridin-7-yl)phenoxy)piperidine-1-sulfonamide [Example 263]”, the pIC50 at IKKε is 8.20; on TBK1 it was 8.51.

As to `COc1cc(-c2cc3c(-c4ccc(OC5CCOCC5)c(C#N)c4)c(F)cnc3[nH]2)ccc1N1CCOCC1` [Example 172, 5-(5-fluoro-2-(3-methoxy-4-morpholinophenyl)-1H-pyrrolo[2,3-b]pyridin-4-yl)-2-((tetrahydro-2H-pyran-4-yl)oxy)benzonitrile], the figures for the pIC50 on IKKε and on TBK1 were 6.59 and 7.52, respectively.

Take `N#Cc1cc(-c2ccnc3[nH]c(C4=CCC5(CC4)OCCO5)cc23)ccc1OC1CCOCC1` [Example 180, 5-(2-(1,4-dioxaspiro[4.5]dec-7-en-8-yl)-1H-pyrrolo[2,3-b]pyridin-4-yl)-2-((tetrahydro-2H-pyran-4-yl)oxy)benzonitrile]: the values for the pIC50 at IKKε and at TBK1 were 7.68 and 8.51, respectively.

Consider `CC(O)C(=O)N1CC[C@@H](Oc2ccc(-c3ccnc4[nH]c(-c5ccc(N6CCOCC6)cc5)cc34)cc2C#N)C1` (stereo partly drawn) [Example 27, 2-(((3R)-1-(2-hydroxypropanoyl)pyrrolidin-3-yl)oxy)-5-(2-(4-morpholinophenyl)-1H-pyrrolo[2,3-b]pyridin-4-yl)benzonitrile], for which the pIC50 is 7.87 at IKKε and 8.18 at TBK1.

In the case of `N#Cc1cc(-c2ccnc3[nH]c(C4=CCN(C(=O)CO)C4)cc23)ccc1OC1CCOCC1` [Example 182, 5-(2-(1-(2-hydroxyacetyl)-2,5-dihydro-1H-pyrrol-3-yl)-1H-pyrrolo[2,3-b]pyridin-4-yl)-2-((tetrahydro-2H-pyran-4-yl)oxy)benzonitrile], the pIC50 at IKKε was 7.45; on TBK1 it was 7.83.

As to `N#Cc1cc(-c2ccnc3[nH]c(-c4ccc(N5CCN(C6COC6)CC5)cc4)cc23)ccc1OC1CCOCC1` [Example 85, 5-(2-(4-(4-(oxetan-3-yl)piperazin-1-yl)phenyl)-1H-pyrrolo[2,3-b]pyridin-4-yl)-2-((tetrahydro-2H-pyran-4-yl)oxy)benzonitrile], the pIC50 at IKKε is 8.46; on TBK1, 8.88.

For the compound `N#Cc1cc(-c2ncnc3[nH]c(-c4ccc(CN5CCOCC5)cc4)nc23)ccc1OC1CCOCC1` [Example 252, 5-(8-(4-(morpholinomethyl)phenyl)-9H-purin-6-yl)-2-((tetrahydro-2H-pyran-4-yl)oxy)benzonitrile], the pIC50 at IKKε was 8.31; at TBK1 it was 8.48.

Regarding `N#Cc1cc(-c2ncnc3[nH]c(-c4ccc(OCCN5CCCC5)cc4)cc23)ccc1OC1CCN(C(=O)CO)CC1` [Example 229, 2-((1-(2-hydroxyacetyl)piperidin-4-yl)oxy)-5-(6-(4-(2-(pyrrolidin-1-yl)ethoxy)phenyl)-7H-pyrrolo[2,3-d]pyrimidin-4-yl)benzonitrile], the negative-log IC50 (pIC50) on IKKε is 9.07; on TBK1, 9.00.

Turning to `CN1CCN(C(=O)c2cc3c(-c4ccc(OC5CCOCC5)c(C#N)c4)ccnc3[nH]2)CC1` [Example 118, 5-(2-(4-methylpiperazine-1-carbonyl)-1H-pyrrolo[2,3-b]pyridin-4-yl)-2-((tetrahydro-2H-pyran-4-yl)oxy)benzonitrile], the figures for the pIC50 on IKKε and on TBK1 were 6.54 and 6.00, respectively.

With `N#Cc1cc(-c2cc3c(-c4ccc(N5CC(O)C5)c(C#N)c4)ncnc3[nH]2)ccc1N1CC(O)C1` [Example 230, 5,5′-(7H-pyrrolo[2,3-d]pyrimidine-4,6-diyl)bis(2-(3-hydroxyazetidin-1-yl)benzonitrile)], the results for the pIC50 on IKKε and on TBK1 were 6.49 and 7.87, respectively.

As for `N#Cc1cc(-c2ncnc3[nH]c(-c4ccc(N5CCOCC5)cc4)cc23)ccc1OC1CCNCC1` [Example 218, 5-(6-(4-morpholinophenyl)-7H-pyrrolo[2,3-d]pyrimidin-4-yl)-2-(piperidin-4-yloxy)benzonitrile], the pIC50 was 6.85 at IKKε and 7.51 on TBK1.

Consider `CC(C)(O)c1ccc(-c2cc3c(-c4ccc(O[C@@H]5CCN(C(=O)CO)C5)c(C#N)c4)ccnc3[nH]2)cc1` [Example 149, (R)-2-((1-(2-hydroxyacetyl)pyrrolidin-3-yl)oxy)-5-(2-(4-(2-hydroxypropan-2-yl)phenyl)-1H-pyrrolo[2,3-b]pyridin-4-yl)benzonitrile], for which the pIC50 is 8.64 on IKKε and 8.81 at TBK1.

Regarding `CC(C)(C)OC(=O)n1ccc2cc(-c3cc4c(-c5ccc(OC6CCOCC6)c(C#N)c5)ccnc4[nH]3)ccc21` [Example 44, tert-butyl 5-(4-(3-cyano-4-((tetrahydro-2H-pyran-4-yl)oxy)phenyl)-1H-pyrrolo[2,3-b]pyridin-2-yl)-1H-indole-1-carboxylate], the pIC50 at IKKε and at TBK1 was less than 6.00 in each case.

As to `Cn1cc(-c2nc3c(-c4ccc(OC5CCOCC5)c(C#N)c4)ccnc3[nH]2)cn1` [Example 307, 5-(2-(1-methyl-1H-pyrazol-4-yl)-3H-imidazo[4,5-b]pyridin-7-yl)-2-((tetrahydro-2H-pyran-4-yl)oxy)benzonitrile], the negative logarithm of the IC50 (pIC50) is 7.67 at IKKε and 7.35 at TBK1.

On to `N#Cc1cc(-c2ccnc3[nH]c(C(=O)Nc4ccccc4)cc23)ccc1OC1CCOCC1` [Example 61, 4-(3-cyano-4-((tetrahydro-2H-pyran-4-yl)oxy)phenyl)-N-phenyl-1H-pyrrolo[2,3-b]pyridine-2-carboxamide], for which the pIC50 on IKKε was 6.95; on TBK1, 6.51.

As for `CN1CCN(C(=O)c2ccc(-c3cc4c(-c5ccc(OC6CCN(C(=O)CO)CC6)c(C#N)c5)ncnc4[nH]3)cc2)CC1` [Example 161, 2-((1-(2-Hydroxyacetyl)piperidin-4-yl)oxy)-5-(6-(4-(4-methylpiperazine-1-carbonyl)phenyl)-7H-pyrrolo[2,3-d]pyrimidin-4-yl)benzonitrile], the pIC50 is 8.95 on IKKε and 8.81 at TBK1.

On to `N#Cc1cc(-c2ncnc3[nH]c(-c4ccc(C5CCN(CC(F)(F)F)CC5)cc4)nc23)ccc1OC1CCN(C(=O)CO)CC1` [Example 257, 2-((1-(2-hydroxyacetyl)piperidin-4-yl)oxy)-5-(8-(4-(1-(2,2,2-trifluoroethyl)piperidin-4-yl)phenyl)-9H-purin-6-yl)benzonitrile], for which the negative-log IC50 (pIC50) is 7.86 on IKKε and 8.42 at TBK1.

`Cc1noc(C)c1-c1cc2c(-c3ccc(OC4CCOCC4)c(C#N)c3)ccnc2[nH]1` [Example 216, 5-(2-(3,5-dimethylisoxazol-4-yl)-1H-pyrrolo[2,3-b]pyridin-4-yl)-2-((tetrahydro-2H-pyran-4-yl)oxy)benzonitrile]: the results for the pIC50 at IKKε and on TBK1 were 6.92 and 7.17, respectively.

As for `N#Cc1cc(-c2ccnc3[nH]c(-c4ccc(N5CCOCC5)cc4)cc23)ncc1OC1CCOCC1` [Example 26, 2-(2-(4-morpholinophenyl)-1H-pyrrolo[2,3-b]pyridin-4-yl)-5-((tetrahydro-2H-pyran-4-yl)oxy)isonicotinonitrile], the pIC50 on IKKε was 8.16; on TBK1 it was 8.46.

As for `CC(C)(C)OC(=O)N1CCC(Oc2ccc(-c3ccnc4[nH]c(-c5ccc(N6CCOCC6)cc5)cc34)cc2C#N)CC1` [Example 21, tert-butyl 4-(2-cyano-4-(2-(4-morpholinophenyl)-1H-pyrrolo[2,3-b]pyridin-4-yl)phenoxy)piperidine-1-carboxylate], the pIC50 on IKKε was less than 6.00; on TBK1 it was 6.16.

Regarding `N#Cc1cc(-c2ccnc3[nH]c(-c4ccc(N5CCOCC5)cc4)nc23)ccc1OC1CCOCC1` [Example 305, 5-(2-(4-morpholinophenyl)-3H-imidazo[4,5-b]pyridin-7-yl)-2-((tetrahydro-2H-pyran-4-yl)oxy)benzonitrile], the figures for the pIC50 on IKKε and at TBK1 were 7.97 and 8.49, respectively.

On to `CC1(COc2ccc(-c3ccnc4[nH]c(-c5ccc(N6CCOCC6)cc5)cc34)cc2C#N)COC1` [Example 12, 2-((3-methyloxetan-3-yl)methoxy)-5-(2-(4-morpholinophenyl)-1H-pyrrolo[2,3-b]pyridin-4-yl)benzonitrile], for which the pIC50 on IKKε was 7.39; at TBK1, 7.85.
